Source: publication PMC9663578, “A fluorogenic probe for predicting treatment response in non-small cell lung cancer with EGFR-activating mutations” (Nature Communications, 2022)
“And” between values parts separate entries of the source, which are not always exact repeats. Identical values can stand only once.

Experiments:
H1975 cells = assay: FACS assay in cultured cells; details: for HX103 dose-dependent signal (Supplementary Fig. 18): 20 µM = 100
Procedure: (§1) Briefly, the cultured cells were seeded on the petri dish and counted using Count star BioMed automated cell counter. Around 10^6 live-cells were collected and were pelleted (2000×g, 3 min), followed by washing with PBS (2x). Cells were then resuspended in PBS buffer containing 0.1% BSA (1 × 10^6 cells/mL). […] The cell suspension was resuspended in PBS and analyzed with a FACSVerse^TM flow cytometer (BD Biosciences, LSRFortessa). About 10,000 events per tube were analyzed and the mean fluorescence intensity was detected and analyzed.
(§2) For the FACS assay with EGFR antibody, around 10^6 live-cells were collected and washed with PBS (2x). The cells were fixed by 400 µL 4% paraformaldehyde for 15 min at room temperature, followed by permeabilization with 0.1% Triton X-100 for 10 min and blocking with 5% BSA for 30 min. […] The cells were then washed with 0.5% BSA/PBS (3x) and resuspended in 400 µL of 0.1% BSA/PBS. […] The resuspended cell suspension was then analyzed on a FACSVerseTM flow cytometer (BD Biosciences, LSRFortessa). Nonspecific fluorescence binding was omitted by Rabbit mAb IgG isotype control (#3900, CST, 1:100) and the corresponding mean fluorescence was subtracted from the signal measured with each primary antibody. About 10,000 events per tube were analyzed and the mean fluorescence intensity was detected and analyzed.
(§3) Subsequently, the treated cells were incubated for 30 min at 37 °C, followed by washing with PBS buffer three times. […] Finally, the co-stained cells were washed with 0.5% BSA/PBS for three times and resuspended in 400 µL of 0.1% BSA/PBS. The obtained cell suspension was ready for analysis. Nonspecific fluorescence binding was omitted by Rabbit mAb IgG isotype control (#3900, CST, 1:100) as described above.
(§4) Nonspecific fluorescence binding was omitted by Rabbit mAb IgG isotype control (#3900, CST, 1:100). […] After incubation for another 30 min at room temperature, the co-stained cells were washed with 0.5% BSA/PBS for three times and resuspended in 400 µL of 0.1% BSA/PBS. The obtained cell suspension was ready for analysis. Nonspecific fluorescence binding was omitted by Rabbit mAb IgG isotype control (#3900, CST, 1:100) as described above.
(§5) The cells were seeded on the petri dish and cultured at the normal condition with 10% FBS, and that was changed to serum-free condition for 24 h when the cells proliferated at ~80% confluence. […] Nonspecific fluorescence binding was omitted by Rabbit mAb IgG isotype control (#3900, CST, 1:100) as described above.

BSA = BSA (Bos taurus, UniProt P02769); assay: Fluorescence spectra of HX103 with BSA (Fig. 2c); type: binding
Sequence of BSA (P02769 25-607): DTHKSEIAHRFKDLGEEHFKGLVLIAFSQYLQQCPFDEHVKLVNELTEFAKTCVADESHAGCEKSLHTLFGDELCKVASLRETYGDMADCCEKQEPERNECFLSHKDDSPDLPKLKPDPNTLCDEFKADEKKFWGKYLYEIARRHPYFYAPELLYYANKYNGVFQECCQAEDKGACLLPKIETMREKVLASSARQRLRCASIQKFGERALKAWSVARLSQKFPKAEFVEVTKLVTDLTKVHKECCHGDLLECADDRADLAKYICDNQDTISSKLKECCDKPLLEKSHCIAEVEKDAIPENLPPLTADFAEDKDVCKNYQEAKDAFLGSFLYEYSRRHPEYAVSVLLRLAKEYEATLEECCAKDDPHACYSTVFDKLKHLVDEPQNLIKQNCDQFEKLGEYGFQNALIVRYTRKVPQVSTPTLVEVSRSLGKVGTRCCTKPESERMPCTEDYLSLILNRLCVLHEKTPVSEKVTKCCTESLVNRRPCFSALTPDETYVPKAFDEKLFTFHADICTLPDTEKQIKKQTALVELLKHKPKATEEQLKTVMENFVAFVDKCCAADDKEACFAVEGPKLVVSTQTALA

HCC827 cells = assay: FACS assay in cultured cells; details: for HX103 dose-dependent signal (Supplementary Fig. 18): 20 µM = 100
Procedure: as §1, §2, §3, §4, §5

EGFR L858R [1] = target: T1, EGFR L858R (Homo sapiens, UniProt P00533, L858R); assay: Kinase inhibition assay (fluorescent mobility-shift assay); type: biochemical; parameters: Kinase activity: unit not given here; details: for Kinase activity: L858R, n=1-3
T1 construct: EGFR L858R (amino acids 668–1210, #PR7447A); purchased Thermo Fisher PR7447A

EGFR L858R [2] = target: T1, EGFR L858R; assay: Fluorescence turn-on response / titration of HX103 with recombinant EGFR;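 as to Fluorescence intensity at 570 nm: 100% is HX103 fluorescence with wild-type EGFR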;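 as to all read-outs here: fluorescence of the probe measured with recombinant EGFR L858R in PBS carrying 0.1% DMSO, excitation at 440 nm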; type: binding; details: for Fluorescence intensity, L858R: Fig. 2c; for Fluorescence response of HX103 to EGFR L858R: Supplementary Fig. 2f
Procedure: (d) Fluorescence spectra change of HX103 (5 µ M) with increasing concentration of EGFR L858R
(e) Fluorescence spectra change of HX103 (5 µ M ) with
increasing concentration of EGFR 19del (0 to 6 µM) in PBS buffer. (f) Titration curve of HX103
(5 µM) with increasing concentration of EGFRs (0 to 6 µM). The apparent binding affinity (Kd)
The fluorescence titration curve was fitted on one -
site specific binding model. I and I0 represent the intensities of HX103 at 570 nm in the presence
and absence of protein. Data represent average val ues ± SD, n = 3 independent experiments per
dissolved in dimethyl sulfoxide (DMSO) to obtain stock solutions (10 mM). The prepared stock
solution was diluted in sodium phosphate buffer (PBS, 1 M, pH=7.4) to obtain the desired final
concentration solution, containing 0.1% (v/v) DMSO as a cosolvent.
and emission fluorescence spectra of the solution before/after addition o f different concentration
Data analysis：The obtained fluorescence intensity at 570 nm (Excitation wavelength was 440
nm) in each sample was normalized by using the fluorescence intensity of HX103 in the presence
of EGFR. Specifically, the fluorescence intensity of HX103 in the presence of EGFR wild-type
was set at 100% to normalized that of the remaining samples.

[3] = HX103 5 µM, 30 min, replicates n=1-3

## COc1cc2c(Nc3ccc(F)c(Cl)c3)ncnc2cc1OCCCNc1ccc(S(=O)(=O)N(C)C)c2nonc12 [HX103]
H1975 cells; H1975, AVE of n=3
  EGFR(+) HX103 (+) (%) AVE: 82.37%
  HX103 (+) (%) AVE: 87.9667%
H1975 cells; H1975, HX103 0.04 µM
  HX103 dose-dependent signal (Supplementary Fig. 18): 2.425 and 4.214 and 3.319
H1975 cells; H1975, HX103 0.37 µM
  HX103 dose-dependent signal (Supplementary Fig. 18): 11.9338 and 12.3486 and 12.1512
H1975 cells; H1975, HX103 1.1 µM
  HX103 dose-dependent signal (Supplementary Fig. 18): 36.5652 and 42.2419 and 39.4086
H1975 cells; H1975, HX103 3.3 µM
  HX103 dose-dependent signal (Supplementary Fig. 18): 51.8347 and 43.4647 and 47.0457
H1975 cells; H1975, HX103 10 µM
  HX103 dose-dependent signal (Supplementary Fig. 18): 81.1792 and 74.1549 and 77.687
H1975 cells; H1975, HX103 15 µM
  HX103 dose-dependent signal (Supplementary Fig. 18): 93.412 and 78.0323 and 85.7212
H1975 cells; H1975, HX103 20 µM
  HX103 dose-dependent signal (Supplementary Fig. 18): 100
H1975 cells; H1975, HX103 alone or with Gefitinib, replicates n=1-3
  HX103 signal (Supplementary Fig. 7): 118.617 and 81.9826 and 99.4
H1975 cells; H1975, replicates n=1-3
  EGFR(+) HX103 (+) (%): 74.3% and 85.37% and 87.44%
  HX103(+) (%): 98.62% and 87.52% and 77.76%
H1975 cells; [3]
  normalized MFI of HX103 labeling: 81.9742% and 118.026% and 100%
H1975 cells; HX103 5 µM, replicates n=1-3
  EGFR(+) HX103 (+) (%): 85.37% and 87.44% and 74.3%
BSA; wavelength 666 nm
  Fluorescence intensity, BSA: 1883.79
BSA; wavelength 669 nm
  Fluorescence intensity, BSA: 1770.88
BSA; wavelength 671 nm
  Fluorescence intensity, BSA: 1700.55
BSA; wavelength 673 nm
  Fluorescence intensity, BSA: 1676.53
BSA; wavelength 676 nm
  Fluorescence intensity, BSA: 1671.89
BSA; wavelength 678 nm
  Fluorescence intensity, BSA: 1658.01
BSA; wavelength 681 nm
  Fluorescence intensity, BSA: 1606.53
BSA; wavelength 683 nm
  Fluorescence intensity, BSA: 1507.19
BSA; wavelength 686 nm
  Fluorescence intensity, BSA: 1380.4
BSA; wavelength 688 nm
  Fluorescence intensity, BSA: 1249.52
BSA; wavelength 690 nm
  Fluorescence intensity, BSA: 1137.89
BSA; wavelength 693 nm
  Fluorescence intensity, BSA: 1060.59
BSA; wavelength 695 nm
  Fluorescence intensity, BSA: 1011.56
BSA; wavelength 698 nm
  Fluorescence intensity, BSA: 981.361
BSA; wavelength 700 nm
  Fluorescence intensity, BSA: 960.577
HCC827 cells; HCC827, AVE of n=3
  EGFR(+) HX103 (+) (%) AVE: 80.23%
  HX103 (+) (%) AVE: 86.6667%
HCC827 cells; HCC827, HX103 0.01 µM
  HX103 dose-dependent signal (Supplementary Fig. 18): 0.7326 and 0.7683 and 0.9746
HCC827 cells; HCC827, HX103 0.04 µM
  HX103 dose-dependent signal (Supplementary Fig. 18): 2.846 and 2.806 and 2.831
HCC827 cells; HCC827, HX103 0.37 µM
  HX103 dose-dependent signal (Supplementary Fig. 18): 22.4134 and 22.8581 and 22.7877
HCC827 cells; HCC827, HX103 1.1 µM
  HX103 dose-dependent signal (Supplementary Fig. 18): 38.2787 and 42.4364 and 41.8565
HCC827 cells; HCC827, HX103 3.3 µM
  HX103 dose-dependent signal (Supplementary Fig. 18): 54.3583 and 44.1499 and 45.6521
HCC827 cells; HCC827, HX103 10 µM
  HX103 dose-dependent signal (Supplementary Fig. 18): 74.1678 and 84.8664 and 79.5169
HCC827 cells; HCC827, HX103 15 µM
  HX103 dose-dependent signal (Supplementary Fig. 18): 88.3889 and 68.5257 and 78.4542
HCC827 cells; HCC827, HX103 20 µM
  HX103 dose-dependent signal (Supplementary Fig. 18): 100
HCC827 cells; HCC827, HX103 alone or with Gefitinib, replicates n=1-3
  HX103 signal (Supplementary Fig. 7): 106.679 and 93.3209 and 100
HCC827 cells; HCC827, replicates n=1-3
  EGFR(+) HX103 (+) (%): 76.09% and 81.73% and 82.87%
  HX103(+) (%): 99.17% and 83.21% and 77.62%
HCC827 cells; [3]
  normalized MFI of HX103 labeling: 92.4893% and 105.794% and 84.1202%
HCC827 cells; HX103 5 µM, replicates n=1-3
  EGFR(+) HX103 (+) (%): 81.73% and 82.87% and 76.09%
EGFR L858R [1]; Log [HX103 (M)] -5.5
  Kinase activity: 1.026 and 1.162 and 1.004
EGFR L858R [1]; Log [HX103 (M)] -6
  Kinase activity: 0.499 and 0.9509 and 0.7157
EGFR L858R [1]; Log [HX103 (M)] -7
  Kinase activity: 0.6308 and 0.9321 and 0.7802
EGFR L858R [1]; Log [HX103 (M)] -7.5
  Kinase activity: 4.698 and 2.842 and 4.52
EGFR L858R [1]; Log [HX103 (M)] -8
  Kinase activity: 12.69 and 17.65 and 16.97
EGFR L858R [1]; Log [HX103 (M)] -8.5
  Kinase activity: 28.21 and 40.93 and 37.97
EGFR L858R [1]; Log [HX103 (M)] -9
  Kinase activity: 37.52 and 69.85 and 65.69
EGFR L858R [1]; n = 3
  IC50: 1.5 nM
EGFR L858R [2]; wavelength 666 nm
  Fluorescence intensity, L858R: 4655.85
EGFR L858R [2]; wavelength 669 nm
  Fluorescence intensity, L858R: 4299.18
EGFR L858R [2]; wavelength 671 nm
  Fluorescence intensity, L858R: 3977.08
EGFR L858R [2]; wavelength 673 nm
  Fluorescence intensity, L858R: 3702.64
EGFR L858R [2]; wavelength 676 nm
  Fluorescence intensity, L858R: 3456.05
EGFR L858R [2]; wavelength 678 nm
  Fluorescence intensity, L858R: 3215.71
EGFR L858R [2]; wavelength 681 nm
  Fluorescence intensity, L858R: 2960.24
EGFR L858R [2]; wavelength 683 nm
  Fluorescence intensity, L858R: 2683.28
EGFR L858R [2]; wavelength 686 nm
  Fluorescence intensity, L858R: 2403.9
EGFR L858R [2]; wavelength 688 nm
  Fluorescence intensity, L858R: 2143.64
EGFR L858R [2]; wavelength 690 nm
  Fluorescence intensity, L858R: 1924.01
EGFR L858R [2]; wavelength 693 nm
  Fluorescence intensity, L858R: 1757.52
EGFR L858R [2]; wavelength 695 nm
  Fluorescence intensity, L858R: 1633.62
EGFR L858R [2]; wavelength 698 nm
  Fluorescence intensity, L858R: 1538.11
EGFR L858R [2]; wavelength 700 nm
  Fluorescence intensity, L858R: 1456.78
EGFR L858R [2]; Fig. 2d, HX103 with EGFR L858R, n=1-3
  Fluorescence intensity at 570 nm: 94.4744 and 115.569 and 99.2784
EGFR L858R [2]; HX103 5 µM in PBS buffer (0.1% DMSO), 570 nm
  fluorescence turn-on response: high fluorescence
EGFR L858R [2]; HX103 5 µM, EGFR 0 to 6 µM in PBS, one-site specific binding model, read-out: apparent binding affinity (Kd)
  Kd: 800 ± 300 nM
EGFR L858R [2]; EGFR 1 µM, n=1-3
  Fluorescence response of HX103 to EGFR L858R: 6.4875 and 6.559 and 3.424
EGFR L858R [2]; EGFR 2 µM, n=1-3
  Fluorescence response of HX103 to EGFR L858R: 8.6 and 6.836 and 4.376
EGFR L858R [2]; EGFR 5 µM, n=1-3
  Fluorescence response of HX103 to EGFR L858R: 8.998 and 10.1242 and 7.156
EGFR L858R [2]; EGFR 6 µM, n=1-3, 0 at EGFR 0
  Fluorescence response of HX103 to EGFR L858R: 9.745 and 11.2537 and 8.24
